Where a SMILES comes first, the peptide text is derived from it.
What was measured:
[1] = in vitro; conditions: human
In short: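 Peptides at 2-200 μmol.l^−1 incubated 1 h at 37 °C with 5% v/v human erythrocyte suspension in physiological solution. Released haemoglobin in supernatant read at 540 nm against buffer (0%) and 0.2% Triton X100 (100%) lysis controls. LC50 is the peptide concentration lysing 50% of cells.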

[2] = system: Enterococcus faecalis Motol; conditions: BHI medium, 37° C., 20 h
[3] = system: Micrococcus luteus; conditions: Micrococcus luteus; 37° C., 20 h
In short: (§1)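 MIC broth microdilution, LB, ~10^5 CFU/well, peptide 0.1–100 μmol.l^−1 (twofold series). 37 °C, 20 h, continuous shaking; A540 every 15 min.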

[4] = system: Pseudomonas aeruginosa Liberec; conditions: Pseudomonas aeruginosa Liberec; 37° C., 20 h
In short: as §1

[5] = system: Staphylococcus aureus Motol; conditions: Staphylococcus aureus Motol clinical isolate; 37° C., 20 h
In short: as §1

[6] = system: Bacillus subtilis; conditions: Bacillus subtilis; 37° C., 20 h
In short: as §1

[7] = system: Methicillin resistant Staphylococcus aureus (MRSA) 6271; conditions: 37° C., 20 h
In short: as §1

[8] = system: Staphylococcus epidermidis Motol; conditions: 37° C., 20 h
In short: as §1

[9] = system: Pseudomonas aeruginosa 5482; conditions: 37° C., 20 h
In short: as §1

[10] = system: Staphylococcus aureus Liberec; conditions: Staphylococcus aureus Liberec clinical isolate; 37° C., 20 h
In short: as §1

[11] = system: Escherichia coli; conditions: 37° C., 20 h
In short: as §1

[12] = system: Candida albicans Olomouc; conditions: Candida albicans Olomouc; YPD medium; 37° C., 20 h (Example 2)
[13] = system: S. aureus (Liberec) biofilm; experiment: Bacterial biofilm, remaining metabolic activity (MTT); assay type: cell-based, Staphylococcus aureus; conditions: remaining metabolic activity of biofilm, 20 h
In short: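 Biofilms of S. aureus or P. aeruginosa (Liberec) were grown 24 h at 37° C with shaking in BHI plus 1% glucose from ca. 10^8 CFU/ml inocula. After washing, biofilms were exposed 20 h to peptides at 1–128 μmol.l^−1. Surviving metabolic activity was measured by MTT (40 min, formazan in DMSO, A540) as percent of untreated biofilm, blank-corrected.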

CCCC[C@H](NC(=O)[C@H](CC(C)C)NC(=O)[C@H](CO)NC(=O)[C@H](CO)NC(=O)[C@H](CCCC)NC(=O)[C@@H](NC(=O)CN)[C@@H](C)CC)C(=O)N[C@@H](CCCCN)C(=O)N[C@@H](CCCCN)C(=O)N[C@@H](CC(C)C)C(=O)N[C@@H](CCCCN)C(=O)N[C@@H](CCCCN)C(=O)N[C@H](C(=O)N[C@H](C(=O)N[C@@H](C)C(=O)N[C@@H](CCCCN)C(N)=O)[C@@H](C)CC)[C@@H](C)CC [V] (HELM PEPTIDE1{G.I.[Nle].S.S.L.[Nle].K.K.L.K.K.I.I.A.K.[am]}$$$$V2.0)
HC50 at 1 h [1]: 373 µM
Antimicrobial activity MIC E. f. Motol [2]: 54.0 µmol/L
Antimicrobial activity MIC M. l. [3]: 1.6 µmol/L
Antimicrobial activity MIC P. a. Liberec [4]: 7.9 µmol/L
Antimicrobial activity MIC S. a. Motol [5]: 6.7 µmol/L
Antimicrobial activity MIC B. s. [6]: 3.5 µmol/L
Antimicrobial activity MIC S. a. 6271 [7]: 12.7 µmol/L
Antimicrobial activity MIC S. e. Motol [8]: 2.5 µmol/L
Antimicrobial activity MIC P. a. 5482 [9]: 4.0 µmol/L
Antimicrobial activity MIC S. a. Liberec [10]: 4.0 µmol/L
Antimicrobial activity MIC E. c. [11]: 10.0 µmol/L
Antimicrobial activity MIC C. a. Olomouc [12]: 10.0 µmol/L
Metabolic activity (%) S. aureus (Liberec) ([13]; peptide concentration 8 μmol · l^−1): 83.0%
Metabolic activity (%) S. aureus (Liberec) ([13]; peptide concentration 16 μmol · l^−1): 71.0%
Metabolic activity (%) S. aureus (Liberec) ([13]; peptide concentration 32 μmol · l^−1): 49.5%
Metabolic activity (%) S. aureus (Liberec) ([13]; peptide concentration 64 μmol · l^−1): 26.0%
Metabolic activity (%) S. aureus (Liberec) ([13]; peptide concentration 128 μmol · l^−1): 0.0%

From patent US10160785B2, “Antimicrobial peptides and their use for the treatment of topical infections” (priority 2015, dated 2018)
